# Numbers after ± are expanded uncertainties.
# Columns and labels:
# [1] = Molar enthalpy of transition or fusion; conditions: Crystal; DSC
# [2] = Crystal; DSC
smiles,measurement,setting,value
"O=C1C=CC(=O)N1c1ccccc1Br [1-(2-bromophenyl)-pyrrole-2,5-dione]",Molar enthalpy of transition or fusion,[1],4.57 ± 0.215 kcal/mol
same,Triple point temperature,[2],357.24 ± 1.2 K

# — the NIST ThermoML archive (doi:10.1021/acs.jced.9b00560)
